The record followed here is patent publication EP4722201A1, “3-PHENYLISOXAZOLINE-5-CARBOXAMIDE COMPOUND, AND PREPARATION METHOD THEREFOR, HERBICIDAL COMPOSITION THEREOF AND USE THEREOF” (Jiangsu Flag Chemical Industry Co., Ltd, priority 2023, dated 2024).

Test in all cases: Indoor herbicide activity determination, Seed Treatment; pre-emergence (soil spray)
Assay type in all cases: in vivo

Test [1] has as its system Alopecurus myosuroides. The settings on record: Dosage 120 g a.i./ha. An excerpt: (§1) The testing method for herbicide activity of the compound of the present invention was as follows:
(§2) Seed Treatment; pre-emergence: quantitative seeds of gramineous weeds (Echinochloa crusgalli, Eleusine indica, Digitaria sanguinalis, Alopecurus japonicus, Beckmannia syzigachne, Leptochloa chinensis, Polypogon fugax, Alopecurus aequalis, Lolium multiflorum, Poa annua, Aegilops tauschii, Avena fatua, Alopecurus myosuroides, Alopecurus japonicus and Alopecurus aequalis), broad-leaved weeds (Eclipta prostrata, Amaranthus retroflexus, Rorippa indica, Malachium aquaticum, Veronica polita, Conyza canadensis, Sesbania cannabina, Sagittariatrifolia and Schoenoplectiella juncoides), and Cyperus iria were sown in plastic pots having a diameter of 7 cm and holes at the bottom and filled with nutrient soil (sandy soil, pH 6.1, organic matter 1%) respectively, the seeds were covered with an appropriate amount of soil after being sown, then the soil was wetted with water from the bottom, the seeds were cultured in a constant-temperature illuminated culture room for 24 h, and the soil was sprayed by using a 3WP-2000 traveling spray tower produced by the Nanjing Institute of Agricultural Mechanization of the Ministry of Agriculture, where a rotational speed of a main shaft was 96 mm/r, a spray height was 300 mm, an effective spraying range of a nozzle was 350 mm, a spray area was 0.35 m^2, and a flow rate at the nozzle was 390 mL/min.
(§3) Post-emergence: an appropriate quantity of seeds of gramineous weeds (Echinochloa crusgalli, Eleusine indica, Digitaria sanguinalis, Alopecurus japonicus, Beckmannia syzigachne, Leptochloa chinensis, Polypogon fugax, Alopecurus aequalis, Lolium multiflorum, Poa annua, Aegilops tauschii, Avena fatua, Alopecurus myosuroides, Alopecurus japonicus and Alopecurus aequalis), broad-leaved weeds (Eclipta prostrata, Amaranthus retroflexus, Rorippa indica, Malachium aquaticum, Veronica polita, Conyza canadensis, Sesbania cannabina, Sagittariatrifolia and Schoenoplectiella juncoides), and Cyperus iria were sown in plastic pots having a diameter of 7 cm and holes at the bottom and filled with nutrient soil (sandy soil, pH 6.1, organic matter 1%) respectively, the seeds were covered with an appropriate amount of soil after being sown, then the soil was wetted with water from the bottom, the seeds were cultured in a constant-temperature illuminated culture room until a 2-4 leaf stage, and stems and leaves underwent spray treatment. After the treatment, the test materials were placed in a laboratory and cultured in the constant-temperature illuminated culture room after the liquid was naturally dry in the shade, and results were determined 21 days later. Inhibition rate of fresh weight % = (1−(fresh weight of treated plants)/(fresh weight of control plants)) × 100% [formula]

Test [2] deals with Leptochloa chinensis. The conditions noted are these: Dosage 120 g a.i./ha.
From the text: as §1, §2, §3

The test system of test [3] is Eclipta prostrata. The conditions noted are these: 60 g a.i./ha, read-out: Herbicidal activities (inhibition rate) Eclipta prostrata.
From the text: as §1, §2, §3

Test [4] relates to Alopecurus japonicus. The settings on record: Dosage 120 g a.i./ha.
From the text: as §1, §2, §3

Test [5] relates to Cyperus iria. The settings on record: 60 g a.i./ha, read-out: Herbicidal activities (inhibition rate) Cyperus iria.
From the text: as §1, §2, §3

Test [6] concerns Eleusine indica. The settings on record: Dosage 120 g a.i./ha.
From the text: as §1, §2, §3

For test [7], the system named is Lolium multiflorum. The conditions noted are these: Dosage 120 g a.i./ha.
From the text: as §1, §2, §3

On to `O=C(N[C@H]1C[C@@H](C(=O)OC2CCCC2)C1)[C@@]1(C(F)(F)F)CC(c2cc(F)cc(OC(F)(F)F)c2)=NO1` [I-253], for which the “Herbicidal activities, Alopecurus myosuroides (inhibition rate class)” value in test [1] is given as “A (A indicates that the inhibition rate was greater than or equal to 80% to 100%)”. Besides, the “Herbicidal activities, Leptochloa chinensis (inhibition rate class)” value in test [2] is “A (A indicates that the inhibition rate was greater than or equal to 80% to 100%)”. For the same compound, the inhibition (usually the drop in the measured response relative to a control, in per cent) at 60 g/ha in test [3] fell in the range of 60 to 80%; in test [5] it was 80 to 100%. Besides, the “Herbicidal activities, Alopecurus japonicus (inhibition rate class)” value in test [4] was “A (A indicates that the inhibition rate was greater than or equal to 80% to 100%)”. Also, the “Herbicidal activities, Eleusine indica (inhibition rate class)” value in test [6] was “A (A indicates that the inhibition rate was greater than or equal to 80% to 100%)”.
Regarding `O=C(N[C@H]1C[C@@H](C(=O)OCC(F)(F)C(F)(F)F)C1)[C@@]1(C(F)(F)F)CC(c2cc(F)cc(OC(F)(F)F)c2)=NO1` [I-254], the “Herbicidal activities, Alopecurus myosuroides (inhibition rate class)” value in test [1] is “A (A indicates that the inhibition rate was greater than or equal to 80% to 100%)”. In test [2], the “Herbicidal activities, Leptochloa chinensis (inhibition rate class)” value is recorded as “A (A indicates that the inhibition rate was greater than or equal to 80% to 100%)”. The inhibition at 60 g/ha in test [3] and in test [5] was 80 to 100% throughout. Besides, in test [4], the “Herbicidal activities, Alopecurus japonicus (inhibition rate class)” value was “A (A indicates that the inhibition rate was greater than or equal to 80% to 100%)”. Moreover, in test [6], the “Herbicidal activities, Eleusine indica (inhibition rate class)” value is reported as “A (A indicates that the inhibition rate was greater than or equal to 80% to 100%)”.
For the compound `C=C[C@]1(C(=O)N[C@H]2C=C[C@@H](C(=O)OCCCCCCC)C2)CC(c2cc(F)cc(C(F)(F)F)c2)=NO1` [I-431], the “Herbicidal activities, Alopecurus myosuroides (inhibition rate class)” value in test [1] was “A (A indicates that the inhibition rate was greater than or equal to 80% to 100%)”. For the same compound, the “Herbicidal activities, Leptochloa chinensis (inhibition rate class)” value in test [2] is on record as “A (A indicates that the inhibition rate was greater than or equal to 80% to 100%)”. In addition, the inhibition at 60 g/ha in test [3] and in test [5] was 80 to 100% in each case. Besides, the “Herbicidal activities, Alopecurus japonicus (inhibition rate class)” value in test [4] is “A (A indicates that the inhibition rate was greater than or equal to 80% to 100%)”. In addition, the “Herbicidal activities, Lolium multiflorum (inhibition rate class)” value in test [7] was “A (A indicates that the inhibition rate was greater than or equal to 80% to 100%)”. Also, the “Herbicidal activities, Eleusine indica (inhibition rate class)” value in test [6] is given as “A (A indicates that the inhibition rate was greater than or equal to 80% to 100%)”.
As for `C=C[C@]1(C(=O)N[C@H]2C=C[C@@H](C(=O)OCc3ccccc3)C2)CC(c2cc(F)cc(C(F)(F)F)c2)=NO1` [I-439], the “Herbicidal activities, Leptochloa chinensis (inhibition rate class)” value in test [2] is “A (A indicates that the inhibition rate was greater than or equal to 80% to 100%)”. In addition, the inhibition at 60 g/ha in test [3] and in test [5] was 80 to 100% each time. The “Herbicidal activities, Eleusine indica (inhibition rate class)” value in test [6] was “A (A indicates that the inhibition rate was greater than or equal to 80% to 100%)”.
Consider `C=CC(C)OC(=O)[C@@H]1C=C[C@H](NC(=O)[C@@]2(C=C)CC(c3cc(F)cc(C(F)(F)F)c3)=NO2)C1` (some centres unmarked) [I-444], for which the “Herbicidal activities, Leptochloa chinensis (inhibition rate class)” value in test [2] is on record as “A (A indicates that the inhibition rate was greater than or equal to 80% to 100%)”. Further, the inhibition at 60 g/ha in test [3] and in test [5] was 80 to 100% each time. In addition, the “Herbicidal activities, Eleusine indica (inhibition rate class)” value in test [6] is listed as “A (A indicates that the inhibition rate was greater than or equal to 80% to 100%)”.
`C=C[C@]1(C(=O)N[C@H]2C=C[C@@H](C(=O)OC)C2)CC(c2cc(Cl)cc(OC(F)(F)F)c2)=NO1` [I-471]: the “Herbicidal activity (inhibition rate class), Leptochloa chinensis” value in test [2] is given as “A (A indicates that the inhibition rate was greater than or equal to 80% to 100%)”. In addition, the inhibition at 60 g/ha in test [3] and in test [5] was 80 to 100% throughout. Also, the “Herbicidal activity (inhibition rate class), Eleusine indica” value in test [6] was “A (A indicates that the inhibition rate was greater than or equal to 80% to 100%)”.
As for `C=C[C@]1(C(=O)N[C@H]2C=C[C@@H](C(=O)OC3CCC3)C2)CC(c2cc(Cl)cc(C(F)(F)F)c2)=NO1` [I-478], the “Herbicidal activity (inhibition rate class), Alopecurus myosuroides” value in test [1] is recorded as “A (A indicates that the inhibition rate was greater than or equal to 80% to 100%)”. The “Herbicidal activity (inhibition rate class), Leptochloa chinensis” value in test [2] is on record as “A (A indicates that the inhibition rate was greater than or equal to 80% to 100%)”. The inhibition at 60 g/ha in test [3] and in test [5] was 80 to 100% throughout. The “Herbicidal activity (inhibition rate class), Alopecurus japonicus” value in test [4] is on record as “A (A indicates that the inhibition rate was greater than or equal to 80% to 100%)”. Moreover, the “Herbicidal activity (inhibition rate class), Lolium multiflorum” value in test [7] is reported as “B (B indicates that the inhibition rate was greater than or equal to 60% to less than 80%)”. Besides, the “Herbicidal activity (inhibition rate class), Eleusine indica” value in test [6] was “A (A indicates that the inhibition rate was greater than or equal to 80% to 100%)”.
Consider `C=C[C@]1(C(=O)N[C@H]2C=C[C@@H](C(=O)OC(C)C)C2)CC(c2cc(Cl)cc(C(F)(F)F)c2)=NO1` [I-483], for which, in test [2], the “Herbicidal activity (inhibition rate class), Leptochloa chinensis” value was “A (A indicates that the inhibition rate was greater than or equal to 80% to 100%)”. Besides, the inhibition at 60 g/ha in test [3] and in test [5] was 80 to 100% throughout. In test [6], the “Herbicidal activity (inhibition rate class), Eleusine indica” value is reported as “A (A indicates that the inhibition rate was greater than or equal to 80% to 100%)”.
Consider `C#CC(CC)OC(=O)[C@@H]1C=C[C@H](NC(=O)[C@@]2(C)CC(c3cc(Cl)cc(C(F)(F)F)c3)=NO2)C1` (some centres unmarked) [I-514], for which the “Herbicidal activity (inhibition rate class), Alopecurus myosuroides” value in test [1] is given as “A (A indicates that the inhibition rate was greater than or equal to 80% to 100%)”. Moreover, in test [2], the “Herbicidal activity (inhibition rate class), Leptochloa chinensis” value is reported as “A (A indicates that the inhibition rate was greater than or equal to 80% to 100%)”. Also, the inhibition at 60 g/ha in test [3] and in test [5] was 80 to 100% in each case. In test [4], the “Herbicidal activity (inhibition rate class), Alopecurus japonicus” value is given as “A (A indicates that the inhibition rate was greater than or equal to 80% to 100%)”. Also, in test [7], the “Herbicidal activity (inhibition rate class), Lolium multiflorum” value is recorded as “A (A indicates that the inhibition rate was greater than or equal to 80% to 100%)”. For the same compound, the “Herbicidal activity (inhibition rate class), Eleusine indica” value in test [6] is recorded as “A (A indicates that the inhibition rate was greater than or equal to 80% to 100%)”.
`COC(=O)[C@@H]1C=C[C@H](NC(=O)[C@@]2(C(F)F)CC(c3cc(F)cc(C(F)(F)F)c3)=NO2)C1` [I-532]: the “Herbicidal activity (inhibition rate class), Leptochloa chinensis” value in test [2] was “A (A indicates that the inhibition rate was greater than or equal to 80% to 100%)”. The inhibition at 60 g/ha in test [3] and in test [5] was 80 to 100% throughout. In addition, in test [6], the “Herbicidal activity (inhibition rate class), Eleusine indica” value is listed as “A (A indicates that the inhibition rate was greater than or equal to 80% to 100%)”.
